Assay results reported in US10294202B2, “Pyrrolidinones as herbicides” (FMC Corporation, priority 2013, dated 2019).

What was measured:
Assay in all cases: Test A pre-/postemergence herbicide test
[1] = system: crabgrass, large; format: in vivo, Digitaria sanguinalis
Excerpt: (§1) Seeds of plant species selected from bamyardgrass (Echinochloa crus-galli), kochia (Kochia scoparia), ragweed (common ragweed, Ambrosia elatior), ryegrass, Italian (Italian ryegrass, Lolium multiflorum), crabgrass, large (large crabgrass Digitaria sanguinalis), giant foxtail (Setaria faberii), morningglory (Ipomoea spp.), pigweed (Amaranthus retroflexus), velvetleaf (Abutilon theophrasti), wheat (Triticum aestivum), and corn (Zea mays) were planted into a blend of loam soil and sand and treated preemergence with a directed soil spray using test chemicals formulated in a non-phytotoxic solvent mixture which included a surfactant. At the same time, plants selected from these crop and weed species and also blackgrass (Alopecurus myosuroides), and galium (catchweed bedstraw, Galium aparine) were planted in pots containing the same blend of loam soil and sand and treated with postemergence applications of test chemicals formulated in the same manner. Plants ranged in height from 2 to 10 cm and were in the one- to two-leaf stage for the postemergence treatment. Treated plants and untreated controls were maintained in a greenhouse for approximately 10 days, after which time all treated plants were compared to untreated controls and visually evaluated for injury. Plant response ratings, summarized in Table A, are based on a 0 to 100 scale where 0 is no effect and 100 is complete control. A dash (-) response means no test result.

[2] = system: barnyardgrass; format: in vivo, Echinochloa crus-galli
Excerpt: as §1

[3] = system: velvetleaf; format: in vivo, Abutilon theophrasti
Excerpt: as §1

[4] = system: giant foxtail; format: in vivo, Setaria faberii
Excerpt: as §1

[5] = system: pigweed; format: in vivo, Amaranthus retroflexus
Excerpt: as §1

[6] = system: morningglory; format: in vivo, Ipomoea spp.
Excerpt: as §1

[7] = system: corn; format: in vivo, Zea mays
Excerpt: as §1

[8] = system: wheat; format: in vivo, Triticum aestivum
Excerpt: as §1

[9] = Postemergence, 125 g ai/ha, 0 to 100 scale, 0 no effect, 100 complete control
[10] = Postemergence, 500 g ai/ha, 0 to 100 scale (0 no effect, 100 complete control)
[11] = Preemergence, 125 g ai/ha, visual rating on 0 to 100 scale (0 no effect, 100 complete control)
[12] = preemergence, 500 g ai/ha, 0 to 100 scale
[13] = Postemergence, 1000 g ai/ha, 0 to 100 scale (0 no effect, 100 complete control)
[14] = Preemergence, 1000 g ai/ha, visual rating on 0 to 100 scale (0 no effect, 100 complete control), approx. 10 days
[15] = preemergence, 1000 g ai/ha, 0 to 100 scale
[16] = preemergence, 1000 g ai/ha, 0 to 100 scale (0 no effect, 100 complete control)

N#Cc1ccccc1NC(=O)C1C(=O)NCC1c1ccccc1 (racemic) [Compound 86]
Plant response rating, Crabgrass, Large [1, 9]: 0
Plant response rating, Crabgrass, Large [1, 10]: 60
Crabgrass, Large plant response rating [1, 11]: 60
Plant response rating, Crabgrass, Large [1, 12]: 80
Plant response rating, Barnyardgrass [2, 9]: 0
Plant response rating, Barnyardgrass [2, 10]: 20
Barnyardgrass plant response rating [2, 11]: 0
Plant response rating, Barnyardgrass ([2]; preemergence, 500 g ai/ha, 0 to 100 scale (0 no effect, 100 complete control)): 40
Plant response rating, Velvetleaf [3, 9]: 0
Plant response rating, Velvetleaf [3, 10]: 0
Velvetleaf plant response rating [3, 11]: 0
Plant response rating, Velvetleaf [3, 12]: 0
Plant response rating, Foxtail, Giant [4, 9]: 0
Plant response rating, Foxtail, Giant [4, 10]: 10
Foxtail, Giant plant response rating [4, 11]: 20
Plant response rating, Foxtail, Giant [4, 12]: 60
Plant response rating, Pigweed [5, 9]: 0
Plant response rating, Pigweed [5, 10]: 0
Pigweed plant response rating [5, 11]: 0
Plant response rating, Pigweed [5, 12]: 0
Plant response rating, Morningglory [6, 9]: 0
Plant response rating, Morningglory [6, 10]: 0
Morningglory plant response rating [6, 11]: 0
Plant response rating, Morningglory [6, 12]: 0
Plant response rating, Corn [7, 9]: 0
Plant response rating, Corn [7, 10]: 0
Corn plant response rating [7, 11]: 0
Plant response rating, Corn [7, 12]: 20
Plant response rating, Wheat [8, 9]: 0
Plant response rating, Wheat [8, 10]: 0
Wheat plant response rating [8, 11]: 0
Plant response rating, Wheat [8, 12]: 0

O=C1NCC(c2ccc(F)c(F)c2)C1C(=O)Nc1cccc(=O)[nH]1 (racemic) [Compound 96]
Plant response rating, Crabgrass, Large [1, 13]: 0
Plant response rating, Crabgrass, Large [1, 14]: 0
Plant response rating, Barnyardgrass [2, 13]: 0
Plant response rating, Barnyardgrass [2, 14]: 0
Plant response rating, Velvetleaf [3, 13]: 0
Plant response rating, Velvetleaf [3, 14]: 0
Plant response rating, Foxtail, Giant [4, 13]: 0
Plant response rating, Foxtail, Giant [4, 14]: 0
Plant response rating, Pigweed [5, 13]: 0
Plant response rating, Pigweed [5, 14]: 0
Plant response rating, Morningglory [6, 13]: 0
Plant response rating, Morningglory [6, 14]: 0
Plant response rating, Corn [7, 13]: 0
Plant response rating, Corn [7, 14]: 0
Plant response rating, Wheat [8, 13]: 0
Plant response rating, Wheat [8, 14]: 0

Cn1ccc(C2CNC(=O)C2C(=O)Nc2ccccc2C(F)(F)F)n1 (racemic) [Compound 191]
Plant response rating, Crabgrass, Large [1, 13]: 0
Plant response rating, Crabgrass, Large [1, 15]: 0
Plant response rating, Barnyardgrass [2, 13]: 0
Plant response rating, Barnyardgrass [2, 16]: 0
Plant response rating, Velvetleaf [3, 13]: 0
Plant response rating, Velvetleaf [3, 15]: 0
Plant response rating, Foxtail, Giant [4, 13]: 0
Plant response rating, Foxtail, Giant [4, 15]: 0
Plant response rating, Pigweed [5, 13]: 0
Plant response rating, Pigweed [5, 15]: 0
Plant response rating, Morningglory [6, 13]: 0
Plant response rating, Morningglory [6, 15]: 0
Plant response rating, Corn [7, 13]: 0
Plant response rating, Corn [7, 15]: 0
Plant response rating, Wheat [8, 13]: 0
Plant response rating, Wheat [8, 15]: 0

Cn1ccc(C2CNC(=O)C2C(=O)Nc2cccc(F)c2F)n1 (racemic) [Compound 192]
Plant response rating, Crabgrass, Large [1, 13]: 0
Plant response rating, Crabgrass, Large [1, 15]: 0
Plant response rating, Barnyardgrass [2, 13]: 0
Plant response rating, Barnyardgrass [2, 16]: 0
Plant response rating, Velvetleaf [3, 13]: 0
Plant response rating, Velvetleaf [3, 15]: 0
Plant response rating, Foxtail, Giant [4, 13]: 0
Plant response rating, Foxtail, Giant [4, 15]: 0
Plant response rating, Pigweed [5, 13]: 0
Plant response rating, Pigweed [5, 15]: 0
Plant response rating, Morningglory [6, 13]: 0
Plant response rating, Morningglory [6, 15]: 0
Plant response rating, Corn [7, 13]: 0
Plant response rating, Corn [7, 15]: 0
Plant response rating, Wheat [8, 13]: 0
Plant response rating, Wheat [8, 15]: 0

Cn1cc(C2CNC(=O)C2C(=O)Nc2cccc(F)c2F)cn1 (racemic) [Compound 253]
Plant response rating, Crabgrass, Large [1, 13]: 20
Plant response rating, Crabgrass, Large [1, 15]: 0
Plant response rating, Barnyardgrass [2, 13]: 0
Plant response rating, Barnyardgrass [2, 16]: 0
Plant response rating, Velvetleaf [3, 13]: 0
Plant response rating, Velvetleaf [3, 15]: 0
Plant response rating, Foxtail, Giant [4, 13]: 20
Plant response rating, Foxtail, Giant [4, 15]: 0
Plant response rating, Pigweed [5, 13]: 0
Plant response rating, Pigweed [5, 15]: 0
Plant response rating, Morningglory [6, 13]: 10
Plant response rating, Morningglory [6, 15]: 0
Plant response rating, Corn [7, 13]: 0
Plant response rating, Corn [7, 15]: 0
Plant response rating, Wheat [8, 13]: 0
Plant response rating, Wheat [8, 15]: 0

Cn1cc(C2CNC(=O)C2C(=O)Nc2ccccc2F)cn1 (racemic) [Compound 254]
Plant response rating, Crabgrass, Large [1, 13]: 0
Plant response rating, Crabgrass, Large [1, 15]: 70
Plant response rating, Barnyardgrass [2, 13]: 0
Plant response rating, Barnyardgrass [2, 16]: 0
Plant response rating, Velvetleaf [3, 13]: 0
Plant response rating, Velvetleaf [3, 15]: 0
Plant response rating, Foxtail, Giant [4, 13]: 0
Plant response rating, Foxtail, Giant [4, 15]: 40
Plant response rating, Pigweed [5, 13]: 0
Plant response rating, Pigweed [5, 15]: 0
Plant response rating, Morningglory [6, 13]: 0
Plant response rating, Morningglory [6, 15]: 0
Plant response rating, Corn [7, 13]: 0
Plant response rating, Corn [7, 15]: 0
Plant response rating, Wheat [8, 13]: 0
Plant response rating, Wheat [8, 15]: 0

Cn1ccnc1C1CNC(=O)C1C(=O)Nc1ccccc1F (racemic) [Compound 255]
Plant response rating, Crabgrass, Large [1, 13]: 0
Plant response rating, Crabgrass, Large [1, 15]: 90
Plant response rating, Barnyardgrass [2, 13]: 0
Plant response rating, Barnyardgrass [2, 16]: 60
Plant response rating, Velvetleaf [3, 13]: 0
Plant response rating, Velvetleaf [3, 15]: 0
Plant response rating, Foxtail, Giant [4, 13]: 0
Plant response rating, Foxtail, Giant [4, 15]: 70
Plant response rating, Pigweed [5, 13]: 0
Plant response rating, Pigweed [5, 15]: 0
Plant response rating, Morningglory [6, 13]: 0
Plant response rating, Morningglory [6, 15]: 0
Plant response rating, Corn [7, 13]: 0
Plant response rating, Corn [7, 15]: 0
Plant response rating, Wheat [8, 13]: 0
Plant response rating, Wheat [8, 15]: 0

O=C1NCC(c2ccc(F)c(F)c2)C1C(=O)N(O)c1ccccc1 (stereo not shown) [Compound 71]
Plant response rating, Crabgrass, Large [1, 13]: 80
Plant response rating, Crabgrass, Large [1, 14]: 80
Plant response rating, Barnyardgrass [2, 13]: 50
Plant response rating, Barnyardgrass [2, 14]: 50
Plant response rating, Velvetleaf [3, 13]: 0
Plant response rating, Velvetleaf [3, 14]: 0
Plant response rating, Foxtail, Giant [4, 13]: 60
Plant response rating, Foxtail, Giant [4, 14]: 60
Plant response rating, Pigweed [5, 13]: 0
Plant response rating, Pigweed [5, 14]: 0
Plant response rating, Corn [7, 13]: 0
Plant response rating, Corn [7, 14]: 0
Plant response rating, Wheat [8, 13]: 0
Plant response rating, Wheat [8, 14]: 0
